Target: T1, Human MTHFD2 (Homo sapiens, UniProt P13995)
T1 construct: residues 36-350 in Uniport ID P13995; His6 (N); made in house; host or cells: E. coli
T1 sequence (P13995 36-350): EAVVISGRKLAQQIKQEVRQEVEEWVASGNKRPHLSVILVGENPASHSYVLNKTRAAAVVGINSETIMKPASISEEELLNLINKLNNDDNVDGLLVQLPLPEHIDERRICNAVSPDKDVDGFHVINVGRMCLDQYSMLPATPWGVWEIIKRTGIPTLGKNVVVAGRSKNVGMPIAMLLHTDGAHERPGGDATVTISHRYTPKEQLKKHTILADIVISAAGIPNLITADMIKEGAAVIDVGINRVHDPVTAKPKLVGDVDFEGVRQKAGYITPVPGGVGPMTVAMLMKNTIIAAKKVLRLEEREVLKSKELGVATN
Test: MTHFD2 Activity Assay (dehydrogenase activity, diaphorase/resazurin coupled fluorescence)
Assay type: biochemical
Settings: inhibitory activity (IC50 and/or binding constant); 0.2 nM MTHFD2, 11 concentrations
Summary of the method: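 Resorufin fluorescence (ex 525, em 598 nm) reports NADH formed by the dehydrogenase via diaphorase coupling. Enzyme (0.2 nM, residues 36-350, N-His6) sat with compound 15 min before 70 μM CH2-THF and 1 mM NAD+ started a 30 min reaction. IC50s come from 4-parameter fits over 11 concentrations.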

Structure (SMILES) | IC50 [nM]
Cn1c(C(N)c2ccccc2)nc2c1c(=O)n(Cc1cc3c(Cl)cccc3[nH]1)c(=O)n2C (stereo not shown) [Example 411, 8-(amino(phenyl)methyl)-1-((4-chloro-1H-indol-2-yl)methyl)-3,7-dimethyl-1H-purine-2,6(3H,7H)-dione] | 10 to 1000
Cn1c(=O)n(Cc2cc3c(Cl)cccc3[nH]2)c(=O)c2c1nc(NC1CCCC(C(=O)O)C1)n2CCN (stereo not shown) [Example 418, 3-(7-(2-aminoethyl)-1-((4-chloro-1H-indol-2-yl)methyl)-3-methyl-2,6-dioxo-2,3,6,7-tetrahydro-1H-purin-8-ylamino)cyclohexanecarboxylic acid] | 10 to 1000
Cc1cccc2[nH]c(Cn3c(=O)c4c(nc(Nc5ccncc5)n4C)n(C)c3=O)c(C)c12 [Example 419, 1-((3,4-dimethyl-1H-indol-2-yl)methyl)-3,7-dimethyl-8-(pyridin-4-ylamino)-1H-purine-2,6(3H,7H)-dione] | 10 to 1000
COc1nc2c(c(=O)n(Cc3cc4cccc(Cl)c4[nH]3)c(=O)n2C)n1C [Example 421, 1-[(7-chloro-1H-indol-2-yl)methyl]-8-methoxy-3,7-dimethyl-purine-2,6-dione] | 10 to 1000
Cn1c(NC(=O)C(F)(F)F)nc2c1c(=O)n(Cc1cc3c(Cl)cccc3[nH]1)c(=O)n2C [Example 422, N-[1-[(4-chloro-1H-indol-2-yl)methyl]-3,7-dimethyl-2,6-dioxo-purin-8-yl]-2,2,2-trifluoro-acetamide] | 10 to 1000
Cn1c(C2CCNC2)nc2c1c(=O)n(Cc1[nH]c3cccc(Cl)c3c1Cl)c(=O)n2C (stereo not shown) [Example 423, 1-((3,4-dichloro-1H-indol-2-yl)methyl)-3,7-dimethyl-8-(pyrrolidin-3-yl)-1H-purine-2,6(3H,7H)-dione] | 10 to 1000
Cn1c(C2CCCN2)nc2c1c(=O)n(Cc1cc3c(Cl)cccc3[nH]1)c(=O)n2C (stereo not shown) [Example 424, 1-[(4-chloro-1H-indol-2-yl)methyl]-3,7-dimethyl-8-pyrrolidin-2-yl-purine-2,6-dione] | 10 to 1000
Cn1c(C2CCNC2)nc2c1c(=O)n(Cc1cc3c(Cl)cccc3[nH]1)c(=O)n2C (stereo not shown) [Example 425, 1-[(4-chloro-1H-indol-2-yl)methyl]-3,7-dimethyl-8-pyrrolidin-3-yl-purine-2,6-dione] | 10 to 1000
Cn1c(Nc2ccc(C#N)nc2)nc2c1c(=O)n(Cc1cc3c(Cl)cccc3[nH]1)c(=O)n2C [Example 427, 5-(1-((4-chloro-1H-indol-2-yl)methyl)-3,7-dimethyl-2,6-dioxo-2,3,6,7-tetrahydro-1H-purin-8-ylamino)picolinonitrile] | 10 to 1000
Cn1c(C2CCCCN2)nc2c1c(=O)n(Cc1cc3c(Cl)cccc3[nH]1)c(=O)n2C (stereo not shown) [Example 430, 1-((4-chloro-1H-indol-2-yl)methyl)-3,7-dimethyl-8-(piperidin-2-yl)-3,7-dihydro-1H-purine-2,6-dione] | 10 to 1000
COc1nc2c(c(=O)n(Cc3cc4cccc(Cl)c4n3C)c(=O)n2C)n1C [Example 433, 1-[(7-chloro-1-methyl-indol-2-yl)methyl]-8-methoxy-3,7-dimethyl-purine-2,6-dione] | 10 to 1000
CCC(N)c1nc2c(c(=O)n(Cc3cc4c(Cl)cccc4[nH]3)c(=O)n2C)n1C (stereo not shown) [Example 434, 8-(1-aminopropyl)-1-[(4-chloro-1H-indol-2-yl)methyl]-3,7-dimethyl-purine-2,6-dione] | 10 to 1000
CC(C)C(N)c1nc2c(c(=O)n(Cc3cc4c(Cl)cccc4[nH]3)c(=O)n2C)n1C (stereo not shown) [Example 437, 8-(1-amino-2-methyl-propyl)-1-[(4-chloro-1H-indol-2-yl)methyl]-3,7-dimethyl-purine-2,6-dione] | 10 to 1000
CNC(C)c1nc2c(c(=O)n(Cc3cc4c(Cl)cccc4[nH]3)c(=O)n2C)n1C (stereo not shown) [Example 438, 1-[(4-chloro-1H-indol-2-yl)methyl]-3,7-dimethyl-8-[1-(methylamino)ethyl]purine-2,6-dione] | 10 to 1000
Cn1c(N[C@H]2CCC[C@H]2N)nc2c1c(=O)n(Cc1cc3c(Cl)cccc3[nH]1)c(=O)n2C [Example 439, 8-((1S,2R)-2-aminocyclopentylamino)-1-((4-chloro-1H-indol-2-yl)methyl)-3,7-dimethyl-1H-purine-2,6(3H,7H)-dione] | 10 to 1000
CCn1c(=O)n(Cc2cc3c(Cl)cccc3[nH]2)c(=O)c2c1nc(C(C)N)n2C (stereo not shown) [Example 441, 8-(1-aminoethyl)-1-((4-chloro-1H-indol-2-yl)methyl)-3-ethyl-7-methyl-1H-purine-2,6(3H,7H)-dione] | 10 to 1000
Cn1c(C(N)CC2CC2)nc2c1c(=O)n(Cc1cc3c(Cl)cccc3[nH]1)c(=O)n2C (stereo not shown) [Example 442] | 10 to 1000
Cn1c(C(N)C2CCC2)nc2c1c(=O)n(Cc1cc3c(Cl)cccc3[nH]1)c(=O)n2C (stereo not shown) [Example 443, 8-[amino(cyclobutyl)methyl]-1-[(4-chloro-1H-indol-2-yl)methyl]-3,7-dimethyl-purine-2,6-dione] | 10 to 1000
Cn1c(C(N)C2CC2)nc2c1c(=O)n(Cc1cc3c(Cl)cccc3[nH]1)c(=O)n2C (stereo not shown) [Example 444, 8-[amino(cyclopropyl)methyl]-1-[(4-chloro-1H-indol-2-yl)methyl]-3,7-dimethyl-purine-2,6-dione] | 10 to 1000

Second part, the molecule after the results:

IC50 [nM] | Structure (SMILES)
10 to 1000 | Cn1c(Nc2ccnc(CCC(=O)N3CCC3)n2)nc2c1c(=O)n(Cc1cc3c(Cl)cccc3[nH]1)c(=O)n2C [Example 413, 8-(2-(3-(azetidin-1-yl)-3-oxopropyl)pyrimidin-4-ylamino)-1-((4-chloro-1H-indol-2-yl)methyl)-3,7-dimethyl-1H-purine-2,6(3H,7H)-dione]
10 to 1000 | CN(C(=O)CCc1nccc(Nc2nc3c(c(=O)n(Cc4cc5c(Cl)cccc5[nH]4)c(=O)n3C)n2C)n1)C1CC1 [Example 414, 3-(4-(1-((4-chloro-1H-indol-2-yl)methyl)-3,7-dimethyl-2,6-dioxo-2,3,6,7-tetrahydro-1H-purin-8-ylamino)pyrimidin-2-yl)-N-cyclopropyl-N-methylpropanamide]
10 to 1000 | CNC(=O)CCc1nccc(Nc2nc3c(c(=O)n(Cc4cc5c(Cl)cccc5[nH]4)c(=O)n3C)n2C)n1 [Example 415, 3-(4-(1-((4-chloro-1H-indol-2-yl)methyl)-3,7-dimethyl-2,6-dioxo-2,3,6,7-tetrahydro-1H-purin-8-ylamino)pyrimidin-2-yl)-N-methylpropanamide]
10 to 1000 | Cn1c(Nc2ccnc(CCC(=O)N3CCOCC3)n2)nc2c1c(=O)n(Cc1cc3c(Cl)cccc3[nH]1)c(=O)n2C [Example 416, 1-((4-chloro-1H-indol-2-yl)methyl)-3,7-dimethyl-8-((2-(3-morpholino-3-oxopropyl)pyrimidin-4-yl)amino)-3,7-dihydro-1H-purine-2,6-dione]
10 to 1000 | Cn1c(Nc2ccnc(CCC(=O)N3CCCC3)n2)nc2c1c(=O)n(Cc1cc3c(Cl)cccc3[nH]1)c(=O)n2C [Example 417, 1-((4-chloro-1H-indol-2-yl)methyl)-3,7-dimethyl-8-(2-(3-oxo-3-(pyrrolidin-1-yl)propyl)pyrimidin-4-ylamino)-1H-purine-2,6(3H,7H)-dione]
10 to 1000 | Cn1c(Nc2ccc(C(N)=O)cc2)nc2c1c(=O)n(Cc1cc3c(Cl)cccc3[nH]1)c(=O)n2C [Example 420, 4-[[1-[(4-chloro-1H-indol-2-yl)methyl]-3,7-dimethyl-2,6-dioxo-purin-8-yl]amino]benzamide]
10 to 1000 | CCN(CC)C(=O)CCc1nccc(Nc2nc3c(c(=O)n(Cc4cc5c(Cl)cccc5[nH]4)c(=O)n3C)n2C)n1 [Example 426, 3-(4-(1-((4-chloro-1H-indol-2-yl)methyl)-3,7-dimethyl-2,6-dioxo-2,3,6,7-tetrahydro-1H-purin-8-ylamino)pyrimidin-2-yl)-N,N-diethylpropanamide]
10 to 1000 | Cn1c(Nc2ccnc(CCC(=O)N3CCNCC3)n2)nc2c1c(=O)n(Cc1cc3c(Cl)cccc3[nH]1)c(=O)n2C [Example 428, 1-((4-chloro-1H-indol-2-yl)methyl)-3,7-dimethyl-8-(2-(3-oxo-3-(piperazin-1-yl)propyl)pyrimidin-4-ylamino)-1H-purine-2,6(3H,7H)-dione]
10 to 1000 | Cn1c(Nc2ccc(CN)nc2)nc2c1c(=O)n(Cc1cc3c(Cl)cccc3[nH]1)c(=O)n2C [Example 429, 8-(6-(aminomethyl)pyridin-3-ylamino)-1-((4-chloro-1H-indol-2-yl)methyl)-3,7-dimethyl-1H-purine-2,6(3H,7H)-dione]
10 to 1000 | Cn1c(Nc2ccc(CC(N)=O)cc2)nc2c1c(=O)n(Cc1cc3c(Cl)cccc3[nH]1)c(=O)n2C [Example 431, 2-[4-[[1-[(4-chloro-1H-indol-2-yl)methyl]-3,7-dimethyl-2,6-dioxo-purin-8-yl]amino]phenyl]acetamide]
10 to 1000 | Cn1c(Nc2ccc(CO)cc2)nc2c1c(=O)n(Cc1cc3c(Cl)cccc3[nH]1)c(=O)n2C [Example 432, 1-((4-chloro-1H-indol-2-yl)methyl)-8-(4-(hydroxymethyl)phenylamino)-3,7-dimethyl-1H-purine-2,6(3H,7H)-dione]
10 to 1000 | Cn1c(Nc2ccnc(CNC(=O)CN)n2)nc2c1c(=O)n(Cc1cc3c(Cl)cccc3[nH]1)c(=O)n2C [Example 440, 2-amino-N-((4-(1((4-chloro-1H-indol-2-yl)methyl)-3,7-dimethyl-2,6-dioxo-2,3,6,7-tetrahydro-1H-purin-8-ylamino)pyrimidin-2-yl)methyl)acetamide]

From patent publication US12187728B2 (Raze Therapeutics, Inc., priority 2015, dated 2025)
